Experimental data as given in patent US8410112B2, “Compounds useful as inhibitors of ATR kinase” (Vertex Pharmaceuticals Incorporated, priority 2008, dated 2013).

What follows are molecules tested against T1, full-length ATR (Homo sapiens, UniProt Q13535) (assay: ATR Inhibition Assay (radioactive-phosphate incorporation)). Details: Ki(app); 5 nM full-length ATR, 10 μM ATP, 800 μM target peptide, 25° C.
T1 construct: in the presence of 5 nM full-length ATR
Type: biochemical
In short: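 Buffer was 50 mM Tris/HCl pH 7.5, 10 mM MgCl2, 1 mM DTT, with 5 nM enzyme, 10 μM [γ-33P]ATP and 800 μM target peptide at 25 °C. Compound was pre-incubated 10 min before ATP start, and the reaction was stopped after 24 h. Phosphocellulose filter capture; Ki(app) came from non-linear regression of background-corrected initial rates.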

T1 sequence (Q13535 whole entry): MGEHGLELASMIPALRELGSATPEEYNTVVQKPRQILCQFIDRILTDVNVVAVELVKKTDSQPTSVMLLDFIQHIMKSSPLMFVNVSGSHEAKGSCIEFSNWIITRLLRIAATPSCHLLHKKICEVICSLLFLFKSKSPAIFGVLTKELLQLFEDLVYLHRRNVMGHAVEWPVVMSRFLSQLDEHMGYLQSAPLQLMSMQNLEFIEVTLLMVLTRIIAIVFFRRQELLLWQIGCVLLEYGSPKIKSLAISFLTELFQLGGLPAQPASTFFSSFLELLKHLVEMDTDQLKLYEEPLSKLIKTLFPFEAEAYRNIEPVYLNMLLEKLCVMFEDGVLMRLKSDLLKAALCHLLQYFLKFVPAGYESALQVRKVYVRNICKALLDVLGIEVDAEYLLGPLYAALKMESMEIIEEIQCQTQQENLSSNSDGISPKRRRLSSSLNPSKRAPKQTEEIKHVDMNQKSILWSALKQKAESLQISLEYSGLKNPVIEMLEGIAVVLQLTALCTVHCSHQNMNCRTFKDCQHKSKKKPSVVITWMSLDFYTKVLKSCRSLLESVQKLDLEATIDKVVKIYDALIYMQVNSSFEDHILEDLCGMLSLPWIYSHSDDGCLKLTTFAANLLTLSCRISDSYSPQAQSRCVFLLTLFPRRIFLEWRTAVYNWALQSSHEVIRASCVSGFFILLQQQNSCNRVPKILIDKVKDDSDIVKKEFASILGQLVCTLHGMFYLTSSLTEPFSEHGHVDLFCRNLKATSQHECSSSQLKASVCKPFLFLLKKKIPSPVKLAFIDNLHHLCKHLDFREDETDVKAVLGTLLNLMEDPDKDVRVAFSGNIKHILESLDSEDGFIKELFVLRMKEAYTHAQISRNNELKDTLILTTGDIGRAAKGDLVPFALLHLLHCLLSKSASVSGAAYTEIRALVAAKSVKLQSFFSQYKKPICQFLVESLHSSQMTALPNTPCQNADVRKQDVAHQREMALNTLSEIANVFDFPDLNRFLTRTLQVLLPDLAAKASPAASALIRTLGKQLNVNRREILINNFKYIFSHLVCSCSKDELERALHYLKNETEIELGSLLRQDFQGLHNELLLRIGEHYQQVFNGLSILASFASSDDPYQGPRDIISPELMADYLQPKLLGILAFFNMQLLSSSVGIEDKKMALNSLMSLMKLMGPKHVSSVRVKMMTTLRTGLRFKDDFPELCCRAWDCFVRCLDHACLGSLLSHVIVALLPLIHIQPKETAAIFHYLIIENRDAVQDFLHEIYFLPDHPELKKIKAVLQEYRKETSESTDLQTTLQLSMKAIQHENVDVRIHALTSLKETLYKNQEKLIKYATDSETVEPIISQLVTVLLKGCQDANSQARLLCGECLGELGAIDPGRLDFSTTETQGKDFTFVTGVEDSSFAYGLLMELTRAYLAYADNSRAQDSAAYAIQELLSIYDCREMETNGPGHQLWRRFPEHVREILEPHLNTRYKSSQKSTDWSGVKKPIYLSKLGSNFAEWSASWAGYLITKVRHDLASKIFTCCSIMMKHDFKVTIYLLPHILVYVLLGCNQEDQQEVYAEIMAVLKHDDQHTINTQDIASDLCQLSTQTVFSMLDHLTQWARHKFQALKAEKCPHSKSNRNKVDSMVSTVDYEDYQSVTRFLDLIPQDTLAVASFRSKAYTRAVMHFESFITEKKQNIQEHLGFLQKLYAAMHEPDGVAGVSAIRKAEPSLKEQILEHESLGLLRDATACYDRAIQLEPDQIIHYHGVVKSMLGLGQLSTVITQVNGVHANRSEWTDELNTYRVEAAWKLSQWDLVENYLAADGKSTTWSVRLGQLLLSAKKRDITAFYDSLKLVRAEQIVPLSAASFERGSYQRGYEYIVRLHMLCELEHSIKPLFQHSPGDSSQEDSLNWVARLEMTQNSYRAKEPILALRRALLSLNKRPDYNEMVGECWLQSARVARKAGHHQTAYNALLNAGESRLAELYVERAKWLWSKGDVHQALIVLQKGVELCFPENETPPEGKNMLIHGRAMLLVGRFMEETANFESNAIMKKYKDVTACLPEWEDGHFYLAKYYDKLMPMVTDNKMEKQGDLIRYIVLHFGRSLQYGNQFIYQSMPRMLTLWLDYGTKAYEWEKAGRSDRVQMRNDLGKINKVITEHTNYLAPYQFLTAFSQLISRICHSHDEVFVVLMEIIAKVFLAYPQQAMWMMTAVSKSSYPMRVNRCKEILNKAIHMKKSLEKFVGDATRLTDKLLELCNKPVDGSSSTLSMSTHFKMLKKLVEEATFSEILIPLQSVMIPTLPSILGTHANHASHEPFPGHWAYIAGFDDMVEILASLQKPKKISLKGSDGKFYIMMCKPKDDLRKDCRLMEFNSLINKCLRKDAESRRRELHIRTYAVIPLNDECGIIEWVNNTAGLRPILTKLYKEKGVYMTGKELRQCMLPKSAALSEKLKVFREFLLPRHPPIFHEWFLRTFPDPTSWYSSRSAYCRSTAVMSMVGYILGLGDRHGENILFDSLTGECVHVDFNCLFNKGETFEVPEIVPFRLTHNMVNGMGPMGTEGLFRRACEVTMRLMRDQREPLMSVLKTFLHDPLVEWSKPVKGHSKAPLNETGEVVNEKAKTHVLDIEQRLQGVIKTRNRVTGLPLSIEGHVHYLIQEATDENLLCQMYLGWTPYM

SMILES	Ki [nM]
Nc1ncc(N2CCN(C(=O)N3CCCC3)CC2)nc1-c1nc2ccccc2[nH]1 [Compound I-267, (4-(5-amino-6-(1H-benzo[d]imidazol-2-yl)pyrazin-2-yl)piperazin-1-yl)(pyrrolidin-1-yl)methanone]	1000 to 10000
COC(=O)N1CCN(c2cnc(N)c(-c3nc4ccccc4[nH]3)n2)CC1 [Compound I-268, methyl 4-(5-amino-6-(1H-benzo[d]imidazol-2-yl)pyrazin-2-yl)piperazine-1-carboxylate]	1000 to 10000
Nc1ncc(N2CCN(S(=O)(=O)c3ccoc3)CC2)nc1-c1nc2ccccc2[nH]1 [Compound I-269, 3-(1H-benzo[d]imidazol-2-yl)-5-(4-(furan-3-ylsulfonyl)piperazin-1-yl)pyrazin-2-amine]	100 to 1000
Nc1ncc(N2CCN(C(=O)N3CCCCC3)CC2)nc1-c1nc2ccccc2[nH]1 [Compound I-270, (4-(5-amino-6-(1H-benzo[d]imidazol-2-yl)pyrazin-2-yl)piperazin-1-yl)(piperidin-1-yl)methanone]	1000 to 10000
CCOC(=O)N1CCN(c2cnc(N)c(-c3nc4ccccc4[nH]3)n2)CC1 [Compound I-271, ethyl 4-(5-amino-6-(1H-benzo[d]imidazol-2-yl)pyrazin-2-yl)piperazine-1-carboxylate]	1000 to 10000
CC#CCOC(=O)N1CCN(c2cnc(N)c(-c3nc4ccccc4[nH]3)n2)CC1 [Compound I-272, but-2-ynyl 4-(5-amino-6-(1H-benzo[d]imidazol-2-yl)pyrazin-2-yl)piperazine-1-carboxylate]	1000 to 10000
Nc1ncc(N2CCN(C(=O)COc3ccccc3)CC2)nc1-c1nc2ccccc2[nH]1 [Compound I-273, 1-(4-(5-amino-6-(1H-benzo[d]imidazol-2-yl)pyrazin-2-yl)piperazin-1-yl)-2-phenoxyethanone]	1000 to 10000
Cc1cccc(C)c1C(=O)N1CCN(c2cnc(N)c(-c3nc4ccccc4[nH]3)n2)CC1 [Compound I-275, (4-(5-amino-6-(1H-benzo[d]imidazol-2-yl)pyrazin-2-yl)piperazin-1-yl)(2,6-dimethylphenyl)methanone]	1000 to 10000
CCS(=O)(=O)N1CC=C(c2cnc(N)c(-c3nc4ccccn4n3)n2)CC1 [Compound I-276, 3-([1,2,4]triazolo[1,5-a]pyridin-2-yl)-5-(1-(ethylsulfonyl)-1,2,3,6-tetrahydropyridin-4-yl)pyrazin-2-amine]	1000 to 10000
Nc1ncc(N2CCN(c3nccs3)CC2)nc1-c1nc2ccccc2[nH]1 [Compound I-277]	100 to 1000
CN(C)[C@@H]1CCN(C(=O)N2CC=C(c3cnc(N)c(-c4nc5ccccc5[nH]4)n3)CC2)C1 [Compound I-278, (R)-(4-(5-amino-6-(1H-benzo[d]imidazol-2-yl)pyrazin-2-yl)-5,6-dihydropyridin-1(2H)-yl)(3-(dimethylamino)pyrrolidin-1-yl)methanone]	100 to 1000
Nc1ncc(C2=CCN(C(=O)N3CCCNCC3)CC2)nc1-c1nc2ccccc2[nH]1 [Compound I-279, (4-(5-amino-6-(1H-benzo[d]imidazol-2-yl)pyrazin-2-yl)-5,6-dihydropyridin-1(2H)-yl)(1,4-diazepan-1-yl)methanone]	100 to 1000
Nc1ncc(C2=CCN(C(=O)N3CCNCC3)CC2)nc1-c1nc2ccccc2[nH]1 [Compound I-280, (4-(5-amino-6-(1H-benzo[d]imidazol-2-yl)pyrazin-2-yl)-5,6-dihydropyridin-1(2H)-yl)(piperazin-1-yl)methanone]	100 to 1000
Cc1ccc2nc(-c3nc(N4CCn5cnnc5C4)cnc3N)[nH]c2c1 [Compound I-281, 5-(5,6-dihydro-[1,2,4]triazolo[4,3-a]pyrazin-7(8H)-yl)-3-(6-methyl-1H-benzo[d]imidazol-2-yl)pyrazin-2-amine]	1000 to 10000
CC(=O)NC1CN(c2cnc(N)c(-c3nnc(-c4ccccc4)o3)n2)C1 [Compound I-282, N-(1-(5-amino-6-(5-phenyl-1,3,4-oxadiazol-2-yl)pyrazin-2-yl)azetidin-3-yl)ethanamide]	1000 to 10000
CCS(=O)(=O)N1CCN(c2cnc(N)c(-c3nnc(-c4cccc(F)c4)o3)n2)CC1 [Compound I-283, 5-(4-ethylsulfonylpiperazin-1-yl)-3-[5-(3-fluorophenyl)-1,3,4-oxadiazol-2-yl]pyrazin-2-amine]	100 to 1000
Nc1ncc(C2=CCN(C(=O)C3CC3)CC2)nc1-c1nc2ccccc2[nH]1 [Compound I-284, [4-[5-amino-6-(1H-benzimidazol-2-yl)pyrazin-2-yl]-3,6-dihydro-2H-pyridin-1-yl]-cyclopropyl-methanone]	< 100
Nc1ncc(C2=CCN(C(=O)C3CC3)CC2)nc1-c1nnc(-c2ccccc2)o1 [Compound I-285, [4-[5-amino-6-(5-phenyl-1,3,4-oxadiazol-2-yl)pyrazin-2-yl]-3,6-dihydro-2H-pyridin-1-yl]-cyclopropyl-methanone]	< 100
Nc1ncc(-n2ccc(=O)cc2)nc1-c1nnc(-c2ccccc2)o1 [Compound I-286, 1-[5-amino-6-(5-phenyl-1,3,4-oxadiazol-2-yl)pyrazin-2-yl]pyridin-4-one]	< 100

SMILES	Ki [nM]
CCS(=O)(=O)N1CCN(c2cnc(N)c(-c3nnc(-c4ccccc4C)o3)n2)CC1 [Compound I-287, 5-(4-ethylsulfonylpiperazin-1-yl)-3-[5-(o-tolyl)-1,3,4-oxadiazol-2-yl]pyrazin-2-amine]	100 to 1000
Nc1ncc(N2CC=C(C(=O)O)CC2)nc1-c1nnc(-c2ccccc2)o1 [Compound I-288, 1-[5-amino-6-(5-phenyl-1,3,4-oxadiazol-2-yl)pyrazin-2-yl]-3,6-dihydro-2H-pyridine-4-carboxylic acid]	100 to 1000
CCS(=O)(=O)N1CCN(c2cnc(N)c(-c3nnc(-c4c(F)cccc4F)o3)n2)CC1 [Compound I-289, 3-[5-(2,6-difluorophenyl)-1,3,4-oxadiazol-2-yl]-5-(4-ethylsulfonylpiperazin-1-yl)pyrazin-2-amine]	100 to 1000
Nc1ncc(N2CC=C(c3nccs3)CC2)nc1-c1nnc(-c2ccccc2)o1 [Compound I-290, 3-(5-phenyl-1,3,4-oxadiazol-2-yl)-5-(4-thiazol-2-yl-3,6-dihydro-2H-pyridin-1-yl)pyrazin-2-amine]	100 to 1000
CCCS(=O)(=O)N1CC=C(c2cnc(N)c(-c3nc4ccccc4[nH]3)n2)CC1 [Compound I-291, 3-(1H-benzimidazol-2-yl)-5-(1-propylsulfonyl-3,6-dihydro-2H-pyridin-4-yl)pyrazin-2-amine]	< 100
CCS(=O)(=O)N1CCN(c2cnc(N)c(-c3nnc(-c4ccc(F)cc4)o3)n2)CC1 [Compound I-292, 5-(4-ethylsulfonylpiperazin-1-yl)-3-[5-(4-fluorophenyl)-1,3,4-oxadiazol-2-yl]pyrazin-2-amine]	100 to 1000
CC(C)C(=O)N1CC=C(c2cnc(N)c(-c3nc4ccccc4[nH]3)n2)CC1 [Compound I-293, 1-[4-[5-amino-6-(1H-benzimidazol-2-yl)pyrazin-2-yl]-3,6-dihydro-2H-pyridin-1-yl]-2-methyl-propan-1-one]	100 to 1000
CCS(=O)(=O)N1CCN(c2cnc(N)c(-c3nnc(-c4sccc4C)o3)n2)CC1 [Compound I-294, 5-(4-ethylsulfonylpiperazin-1-yl)-3-[5-(3-methyl-2-thienyl)-1,3,4-oxadiazol-2-yl]pyrazin-2-amine]	< 100
CCS(=O)(=O)N1CC2CN(c3cnc(N)c(-c4nc5ccccc5[nH]4)n3)CC2C1 (stereo not shown) [Compound I-295, 3-(1H-benzimidazol-2-yl)-5-(2-ethylsulfonyl-1,3,3a,4,6,6a-hexahydropyrrolo[3,4-c]pyrrol-5-yl)pyrazin-2-amine]	1000 to 10000
CS(=O)(=O)CCN1CCN(c2cnc(N)c(-c3nnc(-c4ccccc4)o3)n2)CC1 [Compound I-296, 5-[4-(2-methylsulfonylethyl)piperazin-1-yl]-3-(5-phenyl-1,3,4-oxadiazol-2-yl)pyrazin-2-amine]	100 to 1000
CCS(=O)(=O)N1CCN(c2cnc(N)c(-c3nnc(-c4ccco4)o3)n2)CC1 [Compound I-297, 5-(4-ethylsulfonylpiperazin-1-yl)-3-[5-(2-furyl)-1,3,4-oxadiazol-2-yl]pyrazin-2-amine]	100 to 1000
N#CCCN1CCN(c2cnc(N)c(-c3nnc(-c4ccccc4)o3)n2)CC1 [Compound I-298, 3-[4-[5-amino-6-(5-phenyl-1,3,4-oxadiazol-2-yl)pyrazin-2-yl]piperazin-1-yl]propanenitrile]	1000 to 10000
CCS(=O)(=O)N1CCN(c2cnc(N)c(-c3nnc(-c4ccccc4F)o3)n2)CC1 [Compound I-299, 5-(4-ethylsulfonylpiperazin-1-yl)-3-[5-(2-fluorophenyl)-1,3,4-oxadiazol-2-yl]pyrazin-2-amine]	100 to 1000
Nc1ncc(N2CCN(Cc3ccccc3)CC2)nc1-c1nnc(-c2ccccc2)o1 [Compound I-300, 5-(4-benzylpiperazin-1-yl)-3-(5-phenyl-1,3,4-oxadiazol-2-yl)pyrazin-2-amine]	1000 to 10000
CCC(=O)N1CC=C(c2cnc(N)c(-c3nnc(-c4ccccc4)o3)n2)CC1 [Compound I-301, 1-[4-[5-amino-6-(5-phenyl-1,3,4-oxadiazol-2-yl)pyrazin-2-yl]-3,6-dihydro-2H-pyridin-1-yl]propan-1-one]	< 100
CCS(=O)(=O)NC1CN(c2cnc(N)c(-c3nnc(-c4ccccc4)o3)n2)C1 [Compound I-302, N-[1-[5-amino-6-(5-phenyl-1,3,4-oxadiazol-2-yl)pyrazin-2-yl]azetidin-3-yl]ethanesulfonamide]	100 to 1000
Nc1ncc(N2CCN(CC(=O)N3CCOCC3)CC2)nc1-c1nnc(-c2ccccc2)o1 [Compound I-303, 2-[4-[5-amino-6-(5-phenyl-1,3,4-oxadiazol-2-yl)pyrazin-2-yl]piperazin-1-yl]-1-morpholino-ethanone]	100 to 1000
Nc1ncc(N2Cc3ccccc3C2=O)nc1-c1nc2ccccc2[nH]1 [Compound I-304, 2-[5-amino-6-(1H-benzimidazol-2-yl)pyrazin-2-yl]isoindolin-1-one]	100 to 1000
